Experimental data as given in ChEMBL document CHEMBL1201862, “PubChem BioAssay data set” (2004).
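Following 48 hours of exposure in 96-well plates, responses at five concentrations were used to interpolate endpoints linearly. At the GI50, growth is halved.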 Active and inactive are the calls of the source. No stated cut-off is given here; in the data, active = GI50 up to about 1.1 µM and inactive = higher.

Tests used:
Experiment in all cases: growth of human tumour cells (NCI), 48 h
CAKI-1 = test system: CAKI-1
EKVX = test system: EKVX
HCT-15 = test system: HCT-15
HOP-92 = test system: HOP-92
HT-29 = test system: HT-29
MCF7 = test system: MCF7
NCI-H23 = test system: NCI-H23
NCI-H460 = test system: NCI-H460
NCI/ADR-RES = test system: NCI/ADR-RES
OVCAR-4 = test system: OVCAR-4
OVCAR-5 = test system: OVCAR-5
RPMI-8226 = test system: RPMI-8226
RXF 393 = test system: RXF 393
SK-MEL-28 = test system: SK-MEL-28
SK-MEL-5 = test system: SK-MEL-5
SNB-19 = test system: SNB-19
SR = test system: SR
TK-10 = test system: TK-10
UACC-62 = test system: UACC-62

SMILES | GI50 (CAKI-1) | GI50 (EKVX) | GI50 (HCT-15) | GI50 (HOP-92) | GI50 (HT-29) | GI50 (MCF7) | GI50 (NCI-H23) | GI50 (NCI-H460) | GI50 (NCI/ADR-RES) | GI50 (OVCAR-4) | GI50 (OVCAR-5) | GI50 (RPMI-8226) | GI50 (RXF 393) | GI50 (SK-MEL-28) | GI50 (SK-MEL-5) | GI50 (SNB-19) | GI50 (SR) | GI50 (TK-10) | GI50 (UACC-62)
CSc1ccc(NC(=O)Nc2cc(C)ccn2)cc1 | > 100 µM (inactive) | > 100 µM (inactive) | > 100 µM | > 100 µM (inactive) | > 100 µM (inactive) | > 100 µM (inactive) | > 100 µM (inactive) | > 100 µM (inactive) | > 100 µM (inactive) | > 100 µM (inactive) | > 100 µM (inactive) | > 100 µM (inactive) | > 100 µM (inactive) | > 100 µM (inactive) | > 100 µM (inactive) | > 100 µM (inactive) | > 100 µM (inactive) | > 100 µM (inactive) | > 100 µM (inactive)
CCOC(=O)C1C(=O)CC(C)(O)C(C(=O)OCC)C1c1ccc(OC)cc1 (centres undefined) | > 100 µM (inactive) | > 100 µM (inactive) | > 100 µM | > 100 µM (inactive) | > 100 µM (inactive) | > 100 µM (inactive) | > 100 µM (inactive) | > 100 µM (inactive) | > 100 µM (inactive) | > 100 µM (inactive) | > 100 µM (inactive) | > 100 µM (inactive) | > 100 µM (inactive) | > 100 µM (inactive) | > 100 µM (inactive) | > 100 µM (inactive) | > 100 µM (inactive) | > 100 µM (inactive) | > 100 µM (inactive)
CC(C)c1ccc2c(c1)CCC1C(C)(CN)CCCC21C (centres undefined) | 1.41 µM (inactive) | 1.86 µM (inactive) | 1.54 µM | 1.55 µM (inactive) | 0.914 µM (active) | 1.44 µM (inactive) | 1.7 µM (inactive) | 1.22 µM (inactive) | 1.64 µM (inactive) | 1.61 µM (inactive) | 1.76 µM (inactive) | 0.653 µM (active) | 1.56 µM (inactive) | 1.73 µM (inactive) | 1.8 µM (inactive) | 1.77 µM (inactive) | 1.1 µM (active) | 1.7 µM (inactive) | 1.77 µM (inactive)
C[C@]12CC[C@@H]3c4cc(OCC(F)(F)F)c(O)cc4C(=O)C[C@H]3[C@@H]1CC[C@@H]2O | 6.93 µM (inactive) | 14.7 µM (inactive) | 4.18 µM | 20.7 µM (inactive) | 12.9 µM (inactive) | 5.07 µM (inactive) | 12 µM (inactive) | 4.71 µM (inactive) | 6.35 µM (inactive) | 27.2 µM (inactive) | 29.9 µM (inactive) | 3.2 µM (inactive) | 13 µM (inactive) | 7.64 µM (inactive) | 5.87 µM (inactive) | 13.5 µM (inactive) | 1.51 µM (inactive) | 18.7 µM (inactive) | 3.26 µM (inactive)
Cc1cc(NC2=CC(=O)C(=O)c3ccccc32)no1 | 5.71 µM (inactive) | 16.1 µM (inactive) | 3.62 µM | 16.4 µM (inactive) | 13 µM (inactive) | 2.81 µM (inactive) | 1.54 µM (inactive) | 6.87 µM (inactive) | 3.87 µM (inactive) | 8.22 µM (inactive) | 5.5 µM (inactive) | 6.05 µM (inactive) | 15.1 µM (inactive) | 13.5 µM (inactive) | 2.26 µM (inactive) | 16.2 µM (inactive) | 7.16 µM (inactive) | 26.1 µM (inactive) | 3.23 µM (inactive)
COc1ccccc1Cn1c2c(c3c(C(=O)NCCN(C)C)c(O)ccc31)C(=O)c1ccccc1C2=O | 2.04 µM (inactive) | 1.82 µM (inactive) | 1.94 µM | 1.17 µM (inactive) | 1.92 µM (inactive) | 1.47 µM (inactive) | 1.83 µM (inactive) | 2.09 µM (inactive) | 2.02 µM (inactive) | 1.65 µM (inactive) | 1.94 µM (inactive) | 0.78 µM (active) | 1.07 µM (active) | 1.71 µM (inactive) | 1.74 µM (inactive) | 2.03 µM (inactive) | 0.291 µM (active) | 1.61 µM (inactive) | 1.83 µM (inactive)
COc1cc2cc(C(=O)N3CC(CCl)c4ccccc43)[nH]c2c(OC)c1OC (centres undefined) | 61.2 µM (inactive) | > 66.1 µM (inactive) | 24.1 µM | > 100 µM (inactive) | 26.8 µM (inactive) | 32.2 µM (inactive) | > 100 µM (inactive) | 17.5 µM (inactive) | 34.8 µM (inactive) | > 94.4 µM (inactive) | > 100 µM (inactive) | 10.6 µM (inactive) | > 100 µM (inactive) | > 100 µM (inactive) | 24.7 µM (inactive) | > 100 µM (inactive) | 18.1 µM (inactive) | > 100 µM (inactive) | 55.5 µM (inactive)
C=Cc1c(C)c(OC)cc2c1Oc1ccc(OC)c(C)c1CC2 | > 100 µM (inactive) | 45.7 µM (inactive) | > 100 µM | > 100 µM (inactive) | > 100 µM (inactive) | > 100 µM (inactive) | > 100 µM (inactive) | > 100 µM (inactive) | 49.1 µM (inactive) | > 100 µM (inactive) | > 100 µM (inactive) | > 100 µM (inactive) | > 100 µM (inactive) | > 100 µM (inactive) | 53.6 µM (inactive) | > 100 µM (inactive) | > 100 µM (inactive) | > 100 µM (inactive) | > 100 µM (inactive)
CC(C)(C)C1(COC(=O)c2ccc(N)cc2)COC1 | > 100 µM (inactive) | 39.4 µM (inactive) | 63.2 µM | > 100 µM (inactive) | 50.1 µM (inactive) | 45 µM (inactive) | 66.7 µM (inactive) | 48.4 µM (inactive) | 58.3 µM (inactive) | 32.7 µM (inactive) | > 100 µM (inactive) | 58.9 µM (inactive) | 72.4 µM (inactive) | > 100 µM (inactive) | 58.7 µM (inactive) | > 100 µM (inactive) | 75.3 µM (inactive) | > 100 µM (inactive) | 55 µM (inactive)
O=C(NCC(=O)N1CCCC1C(=O)OC(=O)C1CCCN1C(=O)CNC(=O)OCc1ccccc1)OCc1ccccc1 (centres undefined) | > 100 µM (inactive) | 42.8 µM (inactive) | 38.8 µM | 31 µM (inactive) | 24.1 µM (inactive) | 21.1 µM (inactive) | 40.9 µM (inactive) | 33.1 µM (inactive) | > 100 µM (inactive) | 40.6 µM (inactive) | 29.1 µM (inactive) | 21.7 µM (inactive) | 24 µM (inactive) | 28.4 µM (inactive) | 26.5 µM (inactive) | 39.4 µM (inactive) | 44.5 µM (inactive) | 17.3 µM (inactive) | 14.7 µM (inactive)
N#C/C(=C\c1ccc2[nH]ccc2c1)C(=O)c1ccc(O)c(O)c1 | > 100 µM (inactive) | 57.9 µM (inactive) | 51.4 µM | 53 µM (inactive) | 69 µM (inactive) | 34.8 µM (inactive) | > 100 µM (inactive) | 37 µM (inactive) | 49.4 µM (inactive) | > 64.3 µM (inactive) | > 73.8 µM (inactive) | > 73.5 µM (inactive) | > 94 µM (inactive) | > 100 µM (inactive) | > 75.2 µM (inactive) | 50 µM (inactive) | 44.2 µM (inactive) | > 72.1 µM (inactive) | 70 µM (inactive)
